The record followed here is ChEMBL document CHEMBL1148086, “Isolation of the furan fatty acid, (8Z,11Z,14Z,17Z)-3,6-epoxyeicos-3,5,8,11,14,17-hexenoic acid from the New Zealand sponge Hymeniacidon hauraki” (J Nat Prod, 1994).

Each structure is given as a SMILES string. ≈ marks a conversion by molar mass, not a printed value. Calls of active or inactive are those of the source. The rule behind the calls is not given here.

Data set [1] relates to P388. The experiment in a line: Cytotoxicity against mouse P388 cells after 48 hrs by SRB assay. The class given is functional, cell-based. On the technique in general: Sulforhodamine B stains cellular protein and so reports cell mass.
Data set [2] concerns Human alphaherpesvirus 1. The experiment in a line: Antiviral activity against Herpes simplex virus type 1 in african green monkey BSC1 cells after 24 hrs. It is filed as functional, organism-based.
For data set [3], the system named is Poliovirus 1. In words: Antiviral activity against Polio virus type 1 in african green monkey BSC1 cells after 24 hrs. The class given is functional, organism-based.
A short description of data set [4]: Cytotoxicity against african green monkey BSC1 cells after 24 hrs. It is filed as cell-based. The settings on record: chlorocebus aethiops, bsc-1, 24 h.

What is called IC50 is the concentration that gives 50% inhibition.

As to `CC/C=C\C/C=C\C/C=C\C/C=C\Cc1ccc(CC(=O)OC)o1`, the 50% inhibitory concentration (IC50) entry in data set [1] (p388), in data set [2] (bsc-1) and in data set [3] (bsc-1) was “Not Active” in each case. Moreover, the Activity result in data set [4] is “Not Active”.

`CC/C=C\C/C=C\C/C=C\C/C=C\Cc1ccc(CC(=O)O)o1`: the 50% inhibitory concentration (IC50) in data set [1] (Mus musculus, P388, 48 h, read-out: IC50) worked out at 13.4 µg/mL (≈ 42.6 µM). The outcome in data set [2] (BSC-1) and in data set [3] (BSC-1) was Active. For the same compound, the Activity in data set [4] came to 2 mm.
